Measurements from article PMC10216551 (2023).

Tests used:
[1] = system: H2 (DNA, aptamer) GACGACTGTGGGCTGCCAAGGGCGCGTAGGGCGAAAGTCGTCCCGATGCT; experiment: ITC; conditions: 500 mM NaCl, 10 mM MgCl2, 50 mM HEPES pH 7.6, 25 °C
[2] = system: H3 (DNA, aptamer) GACGACTAAGCGGCGGTGTGGGCATTTTGGGCTTTTGTCGTCCCGATGCT; experiment: ITC; conditions: 500 mM NaCl, 10 mM MgCl2, 50 mM HEPES pH 7.6, 25 °C
[3] = system: FAM-H1-8 (DNA, aptamer) GACGACGTAGCGGCGGTGTGGGCATTTTGGGCTAAAGTCGTC; experiment: fluorescence, quencher strand displacement; conditions: 500 mM NaCl, 10 mM MgCl2, 50 mM HEPES pH 7.6, room temperature
[4] = system: H1 (DNA, aptamer) GACGACGTAGCGGCGGTGTGGGCATTTTGGGCTAAAGTCGTCCCGATGCT; experiment: ITC; conditions: 500 mM NaCl, 10 mM MgCl2, 50 mM HEPES pH 7.6, 25 °C
[5] = system: H1-12 (DNA, aptamer) CGACGTAGCGGCGGTGTGGGCATTTTGGGCTAAAGTCG; experiment: ITC; conditions: 500 mM NaCl, 10 mM MgCl2; 50 mM HEPES pH 7.6, 25 °C; one-site fit
[6] = system: H1-8 (DNA, aptamer) GACGACGTAGCGGCGGTGTGGGCATTTTGGGCTAAAGTCGTC; experiment: ITC; conditions: 500 mM NaCl, 10 mM MgCl2; 50 mM HEPES pH 7.6, 25 °C; one-site fit
[7] = system: H1-14 (DNA, aptamer) GACGTAGCGGCGGTGTGGGCATTTTGGGCTAAAGTC; experiment: ITC; conditions: 500 mM NaCl, 10 mM MgCl2; 50 mM HEPES pH 7.6, 25 °C; one-site fit
[8] = system: H7 (DNA, aptamer) GACGACGTCCCGATGCTGCAATCGTAAACCCGTTATGTCGTCCCGATGCT; experiment: ITC; conditions: 500 mM NaCl, 10 mM MgCl2; 50 mM HEPES pH 7.6, 25 °C; 10 μM aptamer, 0.33 mM 5-HMF in syringe
[9] = system: H1-21 (DNA, aptamer) GTAGCGGCGGTGTGGGCATTTTGGGCTAA; experiment: ITC; conditions: 500 mM NaCl, 10 mM MgCl2; 50 mM HEPES pH 7.6, 25 °C; one-site fit
[10] = system: H10 (DNA, aptamer) GACGACTAGAGGGGGCCCGTTATTCGGTGATGTCTTGTCGTCCCGATGCT; experiment: ITC; conditions: 500 mM NaCl, 10 mM MgCl2; 50 mM HEPES pH 7.6, 25 °C; 10 μM aptamer, 0.33 mM 5-HMF in syringe

O=Cc1ccco1
binding ([1]; FF concentration not stated): no | binding ([2]; FF concentration not stated): no | binding ([3]; BHQ1-cDNA as displaced strand, up to 100 μM FF): no | binding ([4]; FF concentration not stated): no

O=Cc1ccc(CO)o1
Kd [5]: 1.22 ± 0.90 µM | Kd [6]: 1.79 ± 0.60 µM | Kd ([1]; one-site fit): 8.76 ± 2.50 µM | Kd [7]: 6.50 ± 1.80 µM | binding [8]: no | Kd ([2]; one-site fit): 12.40 ± 2.70 µM | Kd ([3]; apparent, BHQ1-cDNA displaced (1:2), 5-HMF 0–2000 μM): 64 µM | Kd [9]: 4.7 ± 0.6 µM | Kd ([4]; one-site fit): 2.46 ± 1.90 µM | binding [10]: no
